From US11458099B2, “Inhalable antimicrobial particles and methods of making the same” (The Penn State Research Foundation, priority 2017, dated 2022)
≈ marks a conversion by molar mass, not a printed value. Ends that are not written are not given here.

Experiments:
[1] = Cargo release from nanogels by dialysis into 37° C. PBS; assay type: physicochemical; details: from N:P 10 nanogel carrier
Method: Loaded BNCs in DI water were injected into 300 kDa MWCO dialysis tubing. The tubing was submerged in a 30× (by volume) bath of PBS. At predetermined time points, multiple samples (n≥3) were collected from multiple locations throughout the bath. These samples were pooled and release was characterized in the same method used for assessing initial loading. Before each measurement, volume was adjusted to that of the initial bath to ensure concentration consistency.
Next, physiologic release of the encapsulated cargo was assessed by loading each nanogel formulation into a dialysis cassette and suspending it in a release media of 37° C. PBS. The concentration of loaded drug or GFP liberated to the dialysis media was then monitored as a function of time via UV-Vis or fluorescence spectroscopy, respectively. […] The majority of encapsulated protein (>75%) was retained within the nanogel carrier for the first 24 hours, followed by a rapid release phase that occurred between 24 and 72 hours.

[2] = tested on: human HeLa cells
[3] = physchem; details: water
[4] = tested on: dormant persister cells (MTb); assay: KKL-35 viability of non-replicating MTb, Wayne model; assay type: cell-based, Mycobacterium tuberculosis; details: 3 days, FIG. 5B
[5] = tested on: growing MTb; assay: KKL-35 viability of growing MTb cultures, plating assay; assay type: cell-based, Mycobacterium tuberculosis; details: FIG. 5A
[6] = tested on: S. aureus (+); assay: MIC of VAN, NGVAN, NG (broth dilution); assay type: cell-based, Staphylococcus aureus; details: S. aureus vs four gram-negative pathogens
Method: (§1) 2× Dilutions of treatments in broth were plated into a U-bottom 96 well plate. Overnight cultures of Pseudomonas aeruginosa, Escherichia coli, Acinetobacter baumannii, Salmonella enterica and Staphylococcus aureus were incubated in cation adjusted Mueller-Hinton broth as advised by CLSI. Bacteria were diluted to an OD600 of 0.002 and plated in a 1:1 volume ratio with the treatments. These cultures were incubated overnight and MIC values were assessed by visual evaluation of growth inhibition when compared to untreated samples.

[7] = tested on: S. enterica (−); assay: MIC of VAN, NGVAN, NG (broth dilution); assay type: cell-based; details: Salmonella enterica, drug or equivalent concentration of drug loaded into nanogels
Method: as §1

[8] = tested on: E. coli (−); assay: MIC of VAN, NGVAN, NG (broth dilution); assay type: cell-based; details: Escherichia coli, drug or equivalent concentration of drug loaded into nanogels
Method: as §1

[9] = tested on: A. baumannii (−); assay: MIC of VAN, NGVAN, NG (broth dilution); assay type: cell-based; details: Acinetobacter baumannii, read-out: MIC of VAN
Method: as §1

[10] = tested on: P. aeruginosa (−); assay: MIC of VAN, NGVAN, NG (broth dilution); assay type: cell-based; details: Pseudomonas aeruginosa, read-out: MIC of VAN
Method: as §1

[11] = tested on: panel of gram-negative and gram-positive bacterial pathogens; assay: Antibacterial activity against the whole panel; assay type: cell-based; details: four different gram-negative pathogens; highest concentration tested
Method: as §1
Next, the antibacterial activity of VAN-loaded nanogels were evaluated against a panel of gram-negative and gram-positive bacterial pathogens (Table 5). It is important to note that clinical use of VAN is generally excluded to gram-positive infections as most gram-negative pathogens are innately resistant to the drug. This is due to the thick outer membrane of gram-negative bacteria which prevents the large glycopeptide drug from diffusing into the cell wall and reaching its enzymatic target.

[12] = tested on: A. baumannii; assay: MIC of AMPs; assay type: cell-based; details: Gram −
[13] = tested on: B. anthrax; details: Gram +
[14] = tested on: S. enterica; assay: MIC of AMPs; assay type: cell-based; details: Gram −
[15] = tested on: H. influenzae; assay: MIC of AMPs; assay type: cell-based; details: Gram −
[16] = tested on: MS S. aureus; assay: MIC of AMPs; assay type: cell-based; details: Gram +
[17] = tested on: M. tuberculosis; details: Gram +/−
[18] = tested on: MR S. aureus; details: Gram +
[19] = tested on: M. smegmatis; assay: MIC of AMPs; assay type: cell-based; details: Gram +/−
[20] = tested on: P. aeruginosa; assay: MIC of AMPs; assay type: cell-based; details: Gram −
[21] = tested on: M. smegmatis; details: minimum concentration inhibiting 90% culture growth; cited from earlier work
[22] = tested on: THP-1 human macrophage control cell line; details: selectivity index at IC90, MTb over THP-1 human macrophage control cell line; cited from earlier work
[23] = tested on: M. tuberculosis; details: minimum concentration inhibiting 90% culture growth; cited from earlier work

In the case of `COc1cccc2c1C(=O)c1c(O)c3c(c(O)c1C2=O)C[C@@](O)(C(=O)CO)C[C@@H]3O[C@H]1C[C@H](N)[C@H](O)[C@H](C)O1` [DOX, Doxorubicin], the “time to complete release” value [1] is reported as 48 h and the zero-order release rate [1] is reported as about 4 %/hour.

For `O=C(Nc1nnc(-c2ccc(F)cc2)o1)c1ccc(Cl)cc1` [KKL-35, 4-chloro-N-(5-(4-fluorophenyl)-1,3,4-oxadiazol-2-yl)benzamide], the “IC towards human HeLa cells” value [2] was over 500 µg/mL, the solubility [3] was 500 µg/mL (≈ 1570 µM) and the “IC towards dormant persister cells” value [4] was under 1.6 µg/mL. The “IC towards growing MTb” value [5] was under 1.6 µg/mL.

With `CN[C@H](CC(C)C)C(=O)N[C@H]1C(=O)N[C@@H](CC(N)=O)C(=O)N[C@H]2C(=O)N[C@H]3C(=O)N[C@H](C(=O)N[C@H](C(=O)O)c4cc(O)cc(O)c4-c4cc3ccc4O)[C@H](O)c3ccc(c(Cl)c3)Oc3cc2cc(c3O[C@@H]2O[C@H](CO)[C@@H](O)[C@H](O)[C@H]2O[C@H]2C[C@](C)(N)[C@H](O)[C@H](C)O2)Oc2ccc(cc2Cl)[C@H]1O` [VAN, Vancomycin] the “time to 90% drug release” value ([1]; first order kinetics) was at most 4 h, the “times more effective in killing S. aureus than gram-negative pathogens” value [6] was over 30 times and the MIC [7] was 144 µg/mL. The MIC [8] was 144 µg/mL, the MIC [9] was 144 µg/mL and the MIC [10] was 144 µg/mL. For the same compound, the “concentration giving inhibition of bacterial growth” value [11] was 144 µg/mL.

H-KRWHWWRRHWVVW-NH2 [SMAS-1] showed an MIC [12] of 50 µM, an MIC [13] of over 80 µM and an MIC [14] of 80 µM. For the same compound, the MIC [15] was 80 µM, the MIC [16] was over 80 µM and the MIC [17] was 3 µM. For the same compound, the MIC [18] was over 80 µM, the MIC [19] was 5 µM and the MIC [20] was 50 µM.

In the case of H-WKWLKKWIK-NH2 [Entry 1], the IC90 [21] is listed as 1.9 µM, the MIC [12] is listed as 25 µM and the MIC [13] is listed as 10 µM. For the same compound, the MIC [14] was 40 µM, the MIC [15] was 80 µM and the MIC [16] was over 80 µM. For the same compound, the MIC [17] was 20 µM, the SI90 [22] was 21.3 and the MIC [18] was over 80 µM. For the same compound, the MIC [19] was 20 µM, the IC90 [23] was 1.1 µM and the MIC [20] was 10 µM.

For “ILRWKWRWWRWRR-NH2 [Entry 2, cationic antimycobacterial peptide, amidated C-terminus]”, the IC90 [21] is given as 2.4 µM and the SI90 [22] is given as 21.3.

In the case of KRWWKWWRR-NH2 [Entry 3], the IC90 [21] is given as 4.9 µM, the MIC [12] is given as 80 µM and the MIC [13] is given as 80 µM. For the same compound, the MIC [14] was 80 µM, the MIC [15] was 80 µM and the MIC [16] was 80 µM. For the same compound, the MIC [17] was 10 µM, the SI90 [22] was 51.2 and the MIC [18] was 80 µM. The MIC [19] was 20 µM, the IC90 [23] was 3.1 µM and the MIC [20] was 20 µM.

In the case of RRWWRWVVW-NH2 [Entry 4], the IC90 [21] is given as 11.4 µM, the MIC [12] is given as 10 µM and the MIC [13] is given as 20 µM. The MIC [14] was 80 µM, the MIC [15] was 40 µM and the MIC [16] was 20 µM. For the same compound, the MIC [17] was 20 µM, the SI90 [22] was 32.0 and the MIC [18] was 20 µM. The MIC [19] was 20 µM, the IC90 [23] was 5.6 µM and the MIC [20] was 80 µM.
